Measurements from PMC5983452 (PLoS ONE, 2018).
Structures can show the parent of a compound that is named as a salt.

Tests used:
in vitro = in vitro ADME, SD rats; conditions: male, Sprague-Dawley
[1] = Hepatocyte stability, monkey; format: in vitro ADME, cyno-monkeys; conditions: male, cryopreserved hepatocytes, read-out: CLint measured with hepatocytes, Monkey

## NC1CCC(S(=O)(=O)N2C3CCC2CC(NC(=O)c2cc(C4CC4)on2)C3)CC1 [EPZ028862, N-((1R,3R,5S)-8-((1r,4R)-4-aminocyclohexylsulfonyl)-8-aza-bicyclo[3.2.1]octan-3-yl)-5-cyclopropylisoxazole-3-carboxamide hydrochloride]
In vitro; 1 µM, pH 7.4
  CLint measured with liver microsomes, Rat: 3.4 µL/min/mg microsomal protein
In vitro; rat, microsomes, pH 7.4, CLint measured with liver microsomes
  microsomal CLint at 1 µM: < 3 µL/min/mg
[1]
  hepatocyte CLint at 1 µM: 3.2 µL/min/1e6 cells
